Our source for the IC50 values is ChEMBL document CHEMBL1121709, “Importance of the aromatic ring in adrenergic amines. 6. Nonaromatic analogues of phenylethanolamine as inhibitors of phenylethanolamine N-methyltransferase: role of pi-electronic and steric interactions” (J Med Chem, 1981).

The first assay addresses T1, Phenylethanolamine N-methyltransferase (Bos taurus, UniProt P10938).
T1 sequence (P10938 whole entry): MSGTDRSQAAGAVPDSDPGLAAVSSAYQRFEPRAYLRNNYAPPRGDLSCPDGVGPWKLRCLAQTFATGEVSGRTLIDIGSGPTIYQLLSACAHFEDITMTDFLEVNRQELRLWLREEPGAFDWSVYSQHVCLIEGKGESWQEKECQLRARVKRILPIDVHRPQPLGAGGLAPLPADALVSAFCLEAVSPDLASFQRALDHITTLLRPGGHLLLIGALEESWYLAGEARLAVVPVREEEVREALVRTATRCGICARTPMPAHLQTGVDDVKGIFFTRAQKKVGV
Put plainly: The compound was measured for the 50% inhibition of phenylethanolamine N-methyl-transferase.
As for `NCC(O)C12CC3C[C@H](C1)C[C@H](C3)C2` (stereo partly drawn), half-maximal inhibition (IC50) was put at 195 µM.
Compound `NCC(O)C1CCCCCCC1` (stereo not drawn) yielded a 50% inhibitory concentration (IC50) of 8 µM.
`NCC(O)C1CC2C=CC1C2` (stereo in doubt; 9): the IC50 worked out at 454 µM.
Still for that read-out and setting: the same measure for `NCC(O)C1CC2C=CC1C2` (stereo in doubt; 10): 1100 µM; for `NCC(O)C1CC2CCC1C2` (stereo in doubt; 12): 193 µM; for `NCC(O)C1CC2CCC1C2` (stereo in doubt; 13): 475 µM.

The target of another assay is T1, Phenylethanolamine N-methyltransferase. As to the kind of experiment: The compound was measured for the 50% inhibition of phenylethanolamine N-methyl-transferase; 50% inhibition was not achieved at 10e-3 M.
As for `NCC(O)C12C=CC(CC1)C2` (stereo not drawn), the IC50 is greater than 1000 µM.
Compound `NCC(O)C12CCC(CC1)C2` (stereo not drawn) registered an IC50 greater than 1000 µM.
